Measured values: EP0769956B1, “USE OF A GnRH ANTAGONIST FOR THE PREPARATION OF A MEDICAMENT FOR THE TREATMENT OF GONADAL-STEROID CONDITIONS” (THE MEDICAL COLLEGE OF HAMPTON ROADS, priority 1994, dated 2000)
“And” between values parts separate entries of the source, which are not always exact repeats. Identical values can stand only once.

Columns and labels:
in vivo = test: in vivo; set-up: species or system cynomolgus monkeys; settings: cynomolgus monkey, sc
Procedure: Eleven adult female cynomolgus monkeys having regular and presumably ovulatory menstrual cycles were entered into the study. Body weights were determined monthly. Menstrual bleeding and spotting were recorded daily by visual inspection of external genitalia and insertion of vaginal swabs using a saline moistened cotton-tipped applicator, respectively. Blood samples were collected from femoral vessels and the serum stored for subsequent RIA of estradiol and progesterone. Coefficients of variation for these assays were: 7.4 and 11.1; and 7.0 and 10.9%, respectively, for within and between assays. The GnRH antagonist ([…]) used was Nal-Glu: [[…]. The design was progressive in that all eleven monkeys initially received […] at 0.05 mg/kg starting on day 2 of the menstrual cycle and continuing daily until results of the progesterone challenge test and estradiol levels in circulation indicated the need to raise the dose. Concurrently, a pair of progesterone-loaded silastic implants were inserted sc during […] treatment from day 20 and 30, and then removed. If withdrawal menses occurred during the next week, the individual Nal-Glu dose was raised to 0.1 mg/kg daily. On […] treatment day 50, the 10 day progesterone challenge test was repeated for all monkeys. […] Again, amenorrhea or withdrawal menses was recorded. […]

pituitary-ovarian axis = settings: sufficient single dose; monkeys; cited from earlier work
[1] = system: ovarian estrogen secretion; test: Part I dose-finding study: RIA of serum estradiol during 14 days of daily im treatment; format: in vivo, cynomolgus monkeys; settings: 0.1 mg/kg im daily; some individual primates, predominately
Procedure: (§1) Eleven adult female cynomolgus monkeys having regular and presumably ovulatory menstrual cycles were entered into the study. Body weights were determined monthly. Menstrual bleeding and spotting were recorded daily by visual inspection of external genitalia and insertion of vaginal swabs using a saline moistened cotton-tipped applicator, respectively. Blood samples were collected from femoral vessels and the serum stored for subsequent RIA of estradiol and progesterone. Coefficients of variation for these assays were: 7.4 and 11.1; and 7.0 and 10.9%, respectively, for within and between assays. The GnRH antagonist (GnRHant) used was Nal-Glu: [Ac-D2NAL, 4ClDPhe^2, D3Pal^3, Arg^5, DGlu^6(AA), DAla^10]-GnRH.
In Part I of the study, the object was to perform a brief dose-finding study that indicated residual serum estradiol levels in intact primates previously illustrating regular menstrual cycles. Specifically sought was an approximation of the minimal daily im dose of Nal-Glu sufficient to suppress circulating estradiol levels into the target range: less than 45 pg/ml but more than 35 pg/ml. Beginning on day 2 of the menstrual cycle, Nal-Glu GnRHant, suspended in sesame oil, was administered between 9 and 10 am in doses of 0.1 (n = 5) and 0.3 mg/kg (n = 6) for 14 days. Femoral blood was obtained daily under ketamine anesthesia. […]

[2] = system: ovarian estrogen secretion; test: Part II individualized dose titering: RIA of serum estradiol every 10 days; format: in vivo, cynomolgus monkeys
Procedure: as §1
(§2) After a 60 day wash-out interval, the Part II experimental design had two objectives: 1) attempt to titer the GnRHant dose to individual monkeys so that residual ovarian estrogen secretion was often within the target range (estradiol at 35 to 45 pg/ml) in as many of the blood samples as possible; and 2) perform periodic progesterone challenge tests wherein withdrawal bleeding indicates significant estrogen-induced endometrial proliferation (i.e. excessive estrogenic influence) versus amenorrhea (the absence of progesterone withdrawal bleeding) as an indicator that the GnRHant dose and, in turn, the tonic ovarian estrogen production was indicative of a controlled estrogenic milieu.
(§3) The design was progressive in that all eleven monkeys initially received Nal-Glu GnRHant at 0.05 mg/kg starting on day 2 of the menstrual cycle and continuing daily until results of the progesterone challenge test and estradiol levels in circulation indicated the need to raise the dose. Concurrently, a pair of progesterone-loaded silastic implants were inserted sc during GnRHant treatment from day 20 and 30, and then removed. If withdrawal menses occurred during the next week, the individual Nal-Glu dose was raised to 0.1 mg/kg daily. On GnRHant treatment day 50, the 10 day progesterone challenge test was repeated for all monkeys. Those primates who were amenorrheic remained on this dose of Nal-Glu; any "bleeders" were to be shifted to a higher dose of GnRHant at 0.2 mg/kg daily through treatment day 90, with the final progesterone challenge test given to all monkeys on days 80 to 90. Again, amenorrhea or withdrawal menses was recorded.
Femoral blood samples were collected every 10 days through the study for RIA of estradiol and progesterone.

[3] = system: estrogen-induced endometrial proliferation; test: Progesterone challenge test (withdrawal bleeding versus amenorrhea, spotting); format: in vivo, cynomolgus monkeys
Procedure: as §1, §2, §3
For definition, withdrawal bleeding was scored when blood was on the external genitalia for two or more consecutive days within the week following progesterone withdrawal. Spotting was scored when blood was evident only by coloration of the cotton swab upon insertion into the vagina.

CC(=O)[C@H]1CC[C@H]2[C@@H]3CCC4=CC(=O)CC[C@]4(C)[C@H]3CC[C@]12C [progesterone]
concentration at 240 h (in vivo): 6.4 ± 0.6 ng/mL

D-Ac-D-2-Nal^1-DpClPhe^2-D-3-Pal^3-Ser^4-NiLys^5-D-NicLys^6-Leu^7-ILys^8-Pro^9-D-Ala^10 [antide]
effect on the pituitary-ovarian axis (pituitary-ovarian axis): immediate and sustained inhibition of the pituitary-ovarian axis

[Ac-D2NAL, 4ClDPhe^2, D3Pal^3, Arg^5, DGlu^6(AA), DAla^10]-GnRH [Nal-Glu]
serum estradiols [1]: < 25 pg/mL | mean serum estradiol levels ([2]; 0.05 mg/kg im daily, the two primates with withdrawal amenorrhea, target zone 35 to 45 pg/ml): in or near the target zone | estradiol suppression ([2]; 0.2 mg/kg im daily, the lone resistant monkey): under 20 pg/ml | mean circulating estradiol levels ([2]; at third progesterone challenge test, all females except the one given 0.2 mg/kg im daily, target zone 35 to 45 pg/ml): in or near the target zone | mean serum estradiol concentrations ([2]; dose raised to 0.1 mg/kg im daily from day 31, 8 monkeys): approximately 40 pg/ml | monkeys achieving withdrawal amenorrhea ([3]; second progesterone challenge test, only the monkeys raised to 0.1 mg/kg im daily): 8 of 9 | Incidence of Spotting ([3]; week of progesterone withdrawal days 31-37): 13 days | Amenorrhea Achieved ([3]; week of progesterone withdrawal days 31-37, first challenge, all eleven monkeys on 0.05 mg/kg im daily): two and 2/11 | Incidence of Spotting ([3]; week of progesterone withdrawal days 61-67): 12 days | Amenorrhea Achieved ([3]; week of progesterone withdrawal days 61-67, second challenge, 0.05 or 0.1 mg/kg im daily): 10/11 | Incidence of Spotting ([3]; week of progesterone withdrawal days 91-97): 0 days | Amenorrhea Achieved ([3]; week of progesterone withdrawal days 91-97, third challenge, 0.05, 0.1 or 0.2 mg/kg im daily): eleven and 11/11
